# From patent US10426765B2, “Pharmaceutical composition containing nicotinic acid and/or nicotinamide and/or tryptophan for positively influencing the intestinal microbiota” (CONARIS RESEARCH INSTITUTE AG, priority 2012, dated 2019)
# Experiments:
# [1] = system: DSS colitis in ACE2-deficient mice; assay: DSS colitis in ACE2-deficient mice given nicotinamide or tryptophan dipeptides (Example 1); assay type: in vivo; settings: prophylactic and permanent administration
# Source text: Top row: histopathology of the colon (haematoxylin eosin staining on day 10 after DSS administration; bar: 100 μm (a)), weight loss in percent (b) and diarrhea score (c) of DSS-challenged ACE2-normal (ACE2+/y) and ACE2-deficient (ACE2-/y) mice which were given vehicle or nicotinamide (NAM) in the drinking water. The NAM administration began 3 days before the DSS administration. Bottom row: histopathology of the colon (haematoxylin eosin staining on day 7 after DSS challenge; bar: 100 μm (d)), weight loss in percent (e) and damage of the crypts of the colon (f) in DSS-challenged ACE2-normal (ACE2+/y) and ACE2-deficient (ACE2-/y) mice which received normal diet (control) or a tryptophan-dipeptide diet (Trp+). New and findings unpublished at the time the priority application was filed, since published as Hashimoto et al. (Nature 2012, 487:477), support the teachings of the present invention and are briefly described here for the purpose of illustration: It is known that the expression of the transporter for neutral amino acids B^0 AT1 (which transports tryptophan) on the surface of intestinal epithelial cells is bound to the presence of the angiotensin converting enzyme 2 (ACE2) (Kowalczuk et al. 2008, FASEB J. 22:2880; Camargo et al. 2009, Gastroenterology 136:872). […]
# Crohn's disease = Crohn's disease activity index (CDAI) in patients treated with nicotinamide (Example 2); assay type: in vivo, human; settings: three Crohn's disease patients
# Source text: A value of CDAI<150 is equivalent to remission.
# [2] = cited from earlier work
structure (smiles),measurement,setting,value
NC(=O)c1cccnc1 [nicotinamide],intensification of DSS-induced intestinal inflammation in Ace2-/y mice,[1],reduce this effect
same,response of Crohn's disease activity index (CDAI),Crohn's disease; conventionally formulated nicotinamide 2×600 mg daily for 4 weeks,clear response
same,remission (CDAI<150) within the therapy period,Crohn's disease; nicotinamide 2×600 mg daily for 4 weeks,two of them achieved the remission
same,water solubility,[2],high water solubility
